What was measured:
[1] = test system: CD138+ primary cells harvested from 7 MM patients; assay: MTT assay on primary MM cells; assay type: cell-based, human
Text: (§1) CD138+ cells from 7 MM patients were isolated with informed consent from BM mononuclear cells by using positive immunomagnetic column separation (Miltenyi Biotech, Auburn, CA). The purity of CD138+ cells is above 97% as determined by flow cytometry. BMSCs were generated from a MM patient-derived CD138-negative BM mononuclear cells cultured for 5 weeks. Peripheral blood mononuclear cells (PBMCs) from 5 healthy donors were separated by Ficoll-Hipaque density sedimentation.
(§2) U266, RPMI 8226 cells (1×10^4), primary CD138+ cells, PBMCs (5×10^4), and BMSCs (1×10^4) were cultured in 96-well dishes and incubated without or with 6-OAP at indicated concentration for 48 h. MM.1S and MM.1R cells (2×10^4) were seeded into 96-well dishes and pre-cultured for 24 h, then treated with 6-OAP for 48 h. Cell proliferation was determined by MTT assay. Cell viability was estimated by trypan blue dye exclusion.

[2] = test system: normal PBMCs from 5 healthy volunteers; assay: MTT assay on normal PBMCs; assay type: cell-based, human; details: 48 h
Text: as §1, §2

PDK-1 = assay: Western blotting, IGF-I stimulation; assay type: cell-based, human; details: MM.1S; IGF-I 50 ng/ml
Description: (§3) Cell pellets were lysed in RIPA buffer containing 50 mM Tris pH 8.0, 150 mM NaCl, 0.1% SDS, 0.5% deoxycholate, 1% NP-40, 1 mM DTT, 1 mM NaF, 1 mM sodium vanadate, and protease inhibitors cocktail (Sigma). For immunoprecipitations, cells were lysed on ice for 15 minutes in RIPA buffer. Lysates were centrifuged. The supernatant was incubated with indicated antibodies overnight, after which protein A/G Plus beads (Santa Cruz Biotechnology) were added and incubated for 3 h. The beads were washed 4 times in RIPA buffer. Then the beads were resuspended in 1× sample buffer and boiled for 3 min. Protein extracts were quantitated and loaded on 8% to 12% sodium dodecyl sulfate polyacrylamide gel, electrophoresed, and transferred to a nitrocellulose membrane (Whatman). The membrane was incubated with primary antibody, washed, and incubated with horseradish peroxidase (HRP)–conjugated secondary antibody (Pierce). Detection was performed by using a chemiluminescent western detection kit (Cell Signaling). […]
(§4) Figure 5 6-OAP overcomes the protective effects of IL-6, IGF-I and BMSCs on MM cells. […] Cell proliferation was assessed by MTT assay. […] Cell proliferation was assessed by MTT assay. *p<.01,** p<.05. […]

pAkt = assay: Western blotting, IGF-I stimulation; assay type: cell-based, human; details: MM.1S; 6-OAP 7.5 µM for 12 h; IGF-I 50 ng/ml
Description: as §3, §4

Staphylococcus aureus = test system: Staphylococcus aureus; parameters: method as in PMID 9461679, PMID 8657743, PMID 12521264; details: cited from earlier work
[3] = test system: human HL-60 leukemia cells; parameters: method as in PMID 18077129; details: mitochondrial/caspase and NF-κB pathway; cited from earlier work

## CC=C(C)C(=O)OC1C2C(CC(C)C3C=CC(=O)C31C)OC(=O)C2C (stereo not drawn) [6-OAP, 6-O-angeloylplenolin]
[1]
  cell growth of CD138+ primary cells: suppressed cell growth
[2]
  growth of normal PBMCs: did not drastically affect the growth
PDK-1
  phosphorylation of PDK-1: not affected
pAkt
  IGF-I-induced pAkt expression: inhibited
Staphylococcus aureus
  antibacterial activity: exhibit antibacterial activity
[3]
  apoptosis: induce apoptosis

— paper PMC3130785, “Small Compound 6-O-Angeloylplenolin Induces Mitotic Arrest and Exhibits Therapeutic Potentials in Multiple Myeloma” (PLoS ONE, 2011)
